Measured values as given in patent publication US20240270692A1, “S(+) FORM OF 4-(2,4-DIFLUOROPHENYL)-2-(1H-INDOL-3-YL)-4-OXO-BUTANOIC ACID” (TOHOKU UNIVERSITY, priority 2021, published 2024).

Key:
HBlEpC cell line = experiment: Cytotoxicity evaluation 1: viable cell level by WST-8 assay; type: cell-based, human; conditions: 30 nM to 1 mM, cultured 48 hours
Procedure: Hereinafter, the present invention will be described more specifically with reference to Examples, but the technical scope of the present invention is not limited to these Examples. The INS-1E cell line was cultured in an incubator (37° C., 21% O2, 5% CO2) in the presence of RPMI-1640 Medium (manufactured by GIBCO) containing 11.1 mM glucose, 10% FBS, 1 mM sodium pyruvate, 10 mM HEPES, 2 mM glutamine, 50 μM β-mercaptoethanol, penicillin at 100 U/mL, and streptomycin at 100 μg/mL (hereinafter simply referred to as “RPMI-1640 Medium”). […]
An HBlEpC cell line (manufactured by Cell Application) was seeded in a 96-well plate at 2×10^3 cells per well, 0.1% DMSO, which is a solvent for the compounds, or various concentrations (30 NM, 100 nM, 300 nM, 1 μM, 3 μM, 10 μM, 30 μM, 100 μM, 300 μM, or 1 mM) of three compounds (racemic form of MA5, S(+) form of MA5, or R(−) form of MA5) were added to the HBlEpC culture medium, and the cells were cultured for 48 hours. […] The viable cell level (viable cell count level) after culture was measured by a WST-8 assay using Cell Count Reagent SF (manufactured by Nacalai Tesque, Inc.).

HEI-OC1 cell line = experiment: Evaluation of SIRT expression level in animal cells (Western blotting); type: cell-based, mouse; conditions: 1 to 30 μM, cultured 24 hours, compared with absence of the compound
Procedure: A mouse inner ear cell line (HEI-OC1 cell line) was seeded in a dish containing 10 mL of a culture medium (low glucose DMEM medium [glucose concentration of […]] supplemented with 10% by weight of FBS) at 1×10^6 cells/dish and cultured. One day after, 0.1% DMSO, which is a solvent for the compounds, or various concentrations (1 μM, 3 μM, 10 μM, or 30 μM) of three compounds (racemic form of MA5, S(+) form of MA5, or R(−) form of MA5) were added, and the cells were cultured for 24 hours. After the culture was completed, the cells were collected, the cells were disrupted by a conventional method, and the expression levels of various SIRTs (SIRT1, SIRT2, SIRT3, SIRT5, SIRT6, and SIRT7) in the cells were analyzed by Western blotting (see FIGS. 12 to 14 [FIG. 12-1 to FIG. 14-2]).

[1] = Physical properties: solubility in solvents; type: physicochemical
[2] = Physical properties: coloration and degradation of dissolution solutions; type: physicochemical

| solubility ([1]; in a 50% acetonitrile aqueous solution) | solubility ([1]; in a 50% methanol aqueous solution) | solubility ([1]; in acetone, acetonitrile, ethyl acetate, chloroform, dichloromethane, methanol, ethanol, and isopropanol) | degradation product on silica gel TLC plate ([2]; dissolution solution developed immediately) | degradation product on silica gel TLC plate ([2]; dissolution solution spotted and developed after some time) | coloration of dissolution solution ([2]; ethanol, isopropanol, acetone, acetonitrile, ethyl acetate, 50% acetonitrile aqueous solution, or 0.1% formic acid-containing acetonitrile solution, refrigerated for about a week) | degradation product on silica gel TLC plate ([2]; ethyl acetate dissolution solution) | stability under a light, acid, or alkali condition ([2]; light, acid, or alkali condition) | coloration of dissolution solution ([2]; methanol, dichloromethane, chloroform, 50% methanol aqueous solution, or 0.1% formic acid-containing methanol solution, refrigerated for about a week) | coloration of dissolution solution ([2]; mixed solvent of an alcohol (methanol, ethanol, or isopropanol) and chloroform, the day after preparation) | SMILES | viability of the cells (viable cell level, OD450) (HBlEpC cell line) | expression levels of the various SIRTs (SIRT1, SIRT2, SIRT3, SIRT5, SIRT6, and SIRT7) in the cells (HEI-OC1 cell line) | degradation product on silica gel TLC plate ([2]; alcohol-chloroform dissolution solution) |
| --- | --- | --- | --- | --- | --- | --- | --- | --- | --- | --- | --- | --- | --- |
|  |  |  |  |  |  |  |  |  |  | O=C(C[C@@H](C(=O)O)c1c[nH]c2ccccc12)c1ccc(F)cc1F [R(−) form of MA5, 4-(2,4-difluorophenyl)-2-(1H-indol-3-yl)-4-oxo-butanoic acid] | the viability of the cells was higher than when the HBlEpC cell line was cultured in the presence of the racemic form of MA5 | remained almost unchanged |  |
| slightly soluble | sparingly soluble | easily soluble | no degradation product was generated | a degradation product appeared | does not become colored | not easily generated | undergoes coloration and degradation | colored pale yellow | colored yellow | O=C(C[C@H](C(=O)O)c1c[nH]c2ccccc12)c1ccc(F)cc1F [S(+) form of MA5, 4-(2,4-difluorophenyl)-2-(1H-indol-3-yl)-4-oxo-butanoic acid] | the viability of the cells was higher with the S(+) form of MA5 than with the R(−) form of MA5 | increased | a large amount of a degradation product was generated |
